Experimental data reported in US9682962B2, “Pyrazolyl pyrimidinamine compound and application thereof” (SHENYANG SINOCHEM AGROCHEMICALS R&D CO., LTD., priority 2013, dated 2017).

Tests used:
wheat powdery mildew = test: Protectant activity in vivo (whole plant), wheat powdery mildew; conditions: protectant activity
Description: (§1) The method is as followed: The whole plant is used in this test. The compound is dissolved in a proper solvent to get mother solution. The proper solvent is selected from acetone, methanol, DMF and so on according to their dissolving capability to the sample. […] The testing solution is sprayed to the host plant by a special plant sprayer. The plant is inoculated with fungus after 24 hours. According to the infecting characteristic of fungus, the plant is stored in a humidity chamber and then transferred into greenhouse after infection is finished. And the other plants are placed in greenhouse directly.

[1] = system: Green peach aphids (Myzus Persicae Sulzer); test: Bioactivity test against green peach aphid (airbrush foliar spray); type: in vivo
Description: (§2) Compounds were dissolved in mixed solvent (acetone:methanol=1:1), and diluted to required concentration with water containing 0.1% of tween 80.
(§3) Diamond back moth, armyworm, peach aphid and carmine spider mite were used as targets and the method of spraying by airbrush was used for determination of insecticidal bioassays.
Method: Filter papers were put in culture dishes (Diameter=6 cm), and water was dripped on filter papers for preserving moisture. Green peach aphids (Myzus Persicae Sulzer) were maintained on cabbage. Leaves (Diameter=3 cm) of approximately 15-30 aphids were put in the culture dishes. Bioactivity tests were used the method of Airbrush Foliar Spray, pressure=10 psi (0.7 kg/cm2), spray volume=0.5 mL. The studies were conducted at […] 25±1 C in incubator cabinets with 60±5% RH. Survey the survival aphids after 48 h and calculate the death rates.

cucumber downy mildew = test: Protectant activity in vivo (whole plant), cucumber downy mildew; conditions: protectant activity
Description: as §1

diamond back moth = test: Bioactivity test against diamond back moth (airbrush spray); type: in vivo; conditions: for control against diamond back moth (mortality): after 72 h
Description: as §2, §3
The method of spraying by airbrush: The cabbage leaves were made into plates of 2 cm diameter by use of punch. A test solution (0.5 ml) was sprayed by airbrush at the pressure of 0.7 kg/cm^2 to both sides of every plate. 10 Second instar larvae were put into the petri-dishes after the leaf disc air-dried and 3 replicates were set for each treatment. Then the insects were maintained in observation room (25° C., 60˜70% R.H.). Scores were conducted and mortalities were calculated after 72 h.

cucumber anthracnose = test: Protectant activity in vivo (whole plant), cucumber anthracnose; conditions: for control effect against cucumber anthracnose (%): protectant activity
Description: as §1

carmine spider mite = test: Bioactivity test against carmine spider mite (airbrush spray); type: in vivo; conditions: Tetranychus cinnabarinus, 72 h, after 72 hrs, read-out: control against carmine spider mite (mortality)
Description: as §2, §3
The method: shoots with two true leaves in pot were taken, the healthy adults of carmine spider mite were inoculated to the leaves. The adults were counted and then sprayed with airbrush at the pressure of 0.7 kg/cm^2 and at dose of 0.5 ml. 3 replicates were set for each treatment. And then they were maintained in standard observation room. Scores were conducted and mortalities were calculated after 72 hrs.

rice blast = test: microbe, parasite or virus in culture; type: cell-based; conditions: in vitro

| SMILES | control effect against wheat powdery mildew (%) (wheat powdery mildew; 6.25 mg/L) | control effect against wheat powdery mildew (%) (wheat powdery mildew; 25 mg/L) | control effect against wheat powdery mildew (%) (wheat powdery mildew; 100 mg/L) | control effect against wheat powdery mildew (%) (wheat powdery mildew; 400 mg/L) | Insecticidal activity against peach aphid (%) ([1]; 10 mg/L) | Insecticidal activity against peach aphid (%) ([1]; 100 mg/L) | Insecticidal activity against peach aphid (%) ([1]; 600 mg/L) | control effect against cucumber downy mildew(%) (cucumber downy mildew; 25 mg/L) | control effect against cucumber downy mildew(%) (cucumber downy mildew; 50 mg/L) | control effect against cucumber downy mildew(%) (cucumber downy mildew; 100 mg/L) | control effect against cucumber downy mildew(%) (cucumber downy mildew; 400 mg/L) | Insecticidal activity against diamond back moth (%) (diamond back moth; 600 mg/L) | control effect against cucumber anthracnose (%) (cucumber anthracnose; 400 mg/L) | other results |
| --- | --- | --- | --- | --- | --- | --- | --- | --- | --- | --- | --- | --- | --- | --- |
| CCc1ncnc(NCc2cnn(-c3ccccc3)c2C)c1Cl [CK1, reference compound] | 0% | 40% | 60% | 100% | 0% | 0% | 91% | 20% | 95% | 100% | 100% | 43% |  |  |
| CCc1ncnc(NCc2cnn(-c3ccccc3)c2C(F)(F)F)c1Cl [CK2, reference compound] | 0% | 20% | 50% | 100% | 0% | 55% | 100% | 20% | 75% | 100% | 100% | 20% |  |  |
| Cc1nc(C)c(C)c(N(C)Cc2cnn(-c3ccccc3)c2)n1 [CK3, reference compound] |  |  |  | 0% | 0% | 19% | 77% | 0% | 30% | 40% | 100% | 0% | 0% |  |
| Cc1cc(N(C)Cc2cnn(-c3ccccc3)c2)nc(C(C)C)n1 [CK4, reference compound] |  |  |  | 0% |  |  | 0% | 0% | 40% | 50% | 100% | 0% | 0% |  |
| Cc1nc(Cl)cc(N(C)Cc2c(C)nn(-c3ccccc3)c2C)n1 [CK5, reference compound] |  |  |  | 0% | 0% | 22% | 100% |  |  |  | 85% | 0% | 0% |  |
| CCc1ncnc(NCCc2cnn(C(C)(C)C)c2)c1Cl [Compound 23] |  |  | 98% | 100% |  | 94% | 100% |  |  |  |  |  |  | mortality at 100 ppm (carmine spider mite; 100 ppm): > 80%; mortality at 600 ppm (carmine spider mite; 600 ppm): > 80% |
| CC(C)(C)n1cc(CCNc2ncnc(C(F)F)c2Cl)cn1 [Compound 38] | 40% | 100% | 100% | 100% |  | 100% | 100% |  |  |  |  |  | 100% | control effect against cucumber anthracnose (%) (cucumber anthracnose; 6.25 mg/L): 85%; control effect against cucumber anthracnose (%) (cucumber anthracnose; 25 mg/L): 90%; control effect against cucumber anthracnose (%) (cucumber anthracnose; 100 mg/L): 95% |
| Cc1ncnc(NCCc2cnn(-c3ccccc3)c2)c1Cl [Compound 241] |  |  |  |  |  |  |  | 100% | 100% | 100% | 100% | 100% |  | control effect against cucumber downy mildew(%) (cucumber downy mildew; 12.5 mg/L): 65%; inhibition rate against rice blast (rice blast; 0.1 ppm): 80%; inhibition rate against rice blast (rice blast; 0.3 ppm): 80%; inhibition rate against rice blast (rice blast; 0.9 ppm): 100%; Insecticidal activity against diamond back moth (%) (diamond back moth; 10 mg/L): 29%; Insecticidal activity against diamond back moth (%) (diamond back moth; 100 mg/L): 71%; control against diamond back moth (mortality) (diamond back moth; 600 ppm): 100% |
| Cc1ncnc(NCCc2cnn(-c3ccc(OC(F)(F)F)cc3)c2)c1Cl [Compound 318] | 90% | 100% | 100% | 100% |  |  |  | 90% | 98% | 100% | 100% |  | 100% | control effect against cucumber anthracnose (%) (cucumber anthracnose; 0.78 mg/L): 98%; control effect against cucumber anthracnose (%) (cucumber anthracnose; 1.56 mg/L): 98%; control effect against cucumber anthracnose (%) (cucumber anthracnose; 3.13 mg/L): 100%; control effect against cucumber anthracnose (%) (cucumber anthracnose; 6.25 mg/L): 100%; control effect against cucumber anthracnose (%) (cucumber anthracnose; 25 mg/L): 100%; control effect against cucumber anthracnose (%) (cucumber anthracnose; 100 mg/L): 100%; protectant activity against cucumber anthracnose in vivo (cucumber anthracnose; 0.78 ppm): 98%; protectant activity against cucumber anthracnose in vivo (cucumber anthracnose; 1.56 ppm): 98%; protectant activity against cucumber anthracnose in vivo (cucumber anthracnose; 3.13 ppm): 100% |
| FC(F)c1ncnc(NCCc2cnn(-c3ccccc3)c2)c1Cl [Compound 797] | 60% | 100% | 100% | 100% |  |  |  |  |  |  |  | 100% |  | Insecticidal activity against diamond back moth (%) (diamond back moth; 10 mg/L): 65%; Insecticidal activity against diamond back moth (%) (diamond back moth; 100 mg/L): 85%; control against diamond back moth (mortality) (diamond back moth; 100 ppm): 85%; control against diamond back moth (mortality) (diamond back moth; 600 ppm): 100% |
| FC(F)c1ncnc(NCCc2cnn(-c3ccc(C(F)(F)F)cc3)c2)c1Cl [Compound 865] | 40% | 80% | 85% | 100% |  |  |  |  |  |  |  | 100% |  | Insecticidal activity against diamond back moth (%) (diamond back moth; 10 mg/L): 42%; Insecticidal activity against diamond back moth (%) (diamond back moth; 100 mg/L): 50%; control against diamond back moth (mortality) (diamond back moth; 600 ppm): 100% |
